For 24 compounds, IC50 results are on record in EP4667458A1 (Kanaph Therapeutics Inc., priority 2023, dated 2024).

In general, IC50 refers to the concentration that inhibits the measured activity by half.

Where only a bound is given, the exact number is not on record here.

The first test has as its target T1, SOS1 (Homo sapiens, UniProt Q07889).
T1 construct: adding equal amounts of HIS-SOS1cat (160 nM; Cytoskeleton, US); His; purchased Cytoskeleton, US
T1 sequence (Q07889 564-1049 limits assumed): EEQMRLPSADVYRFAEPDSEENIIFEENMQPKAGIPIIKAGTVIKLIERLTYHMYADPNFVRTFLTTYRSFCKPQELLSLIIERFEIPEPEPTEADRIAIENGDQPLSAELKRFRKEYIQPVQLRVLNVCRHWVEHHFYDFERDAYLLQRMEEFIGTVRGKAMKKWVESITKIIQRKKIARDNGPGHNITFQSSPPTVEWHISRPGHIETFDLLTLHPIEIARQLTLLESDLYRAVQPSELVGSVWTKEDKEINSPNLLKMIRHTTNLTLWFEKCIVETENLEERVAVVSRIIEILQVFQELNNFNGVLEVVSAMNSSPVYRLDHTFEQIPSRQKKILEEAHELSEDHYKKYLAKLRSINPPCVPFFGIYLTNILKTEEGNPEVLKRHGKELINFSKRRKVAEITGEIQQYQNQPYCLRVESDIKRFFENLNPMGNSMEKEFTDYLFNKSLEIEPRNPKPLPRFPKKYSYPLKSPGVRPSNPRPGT
Put plainly: SOS-catalyzed nucleotide exchange assay (HTRF, SOS1-mediated GTP loading of KRAS G12D). Format: biochemical. The settings on record: GST-KRAS G12D, HIS-SOS1cat, EDA-GTP-DY-647P1; compound 128 pM to 10 µM; read-out: SOS-catalyzed nucleotide exchange assay (IC50 range, Grade). The method, then:
SOS1 activity was measured by SOS1-mediated GTP loading quantification of KRAS^G12D. GTP-loaded KRAS^G12D was detected by HTRF (Homogeneous Time Resolved Fluorescence) using anti-GST terbium (Cisbio, France) as a donor and a fluorescence GTP analogue (EDA-GTP-DY-647P1, [DY-647P1-labeled 2'/3'-O-(2-aminoethyl-carbamoyl)guanosine-5'-triphosphate (Jena bioscience, Germany)]) as an acceptor.
Assay buffer was composed of 10 mM HEPES pH 7.4, 150 mM NaCl, 5 mM MgCl2, 1 mM DTT, 0.05% BSA Fraction V pH 7.0 (Sigma) and 0.0025% (v/v) Igepal (Sigma). KRAS^G12D working solution was prepared by adding equal amounts of GST-KRAS^G12D (100 nM) and anti-GST-terbium (2 nM; Cisbio, France) to the assay buffer and incubating on ice for 10 minutes. SOS1cat working solution was prepared by adding equal amounts of HIS-SOS1cat (160 nM; Cytoskeleton, US) and EDA-GTP-DY-647P1 (200 nM; Jena bioscience, Germany) to the assay buffer. Control solution was prepared by adding equal volumes of EDA-GTP-DY-647P1 and the assay buffer for normalization control to exclude GEF-independent GTP loading and background signals. In order to induce a reaction, 5 µL of the SOS1cat working solution or the control solution was injected into each well. 5 µL of a compound having various concentrations from 128 pM to 10 µM was added to wells containing the SOS1cat working solution and incubated at room temperature for 10 minutes to bind to SOS1.
10 µL of the KRAS^G12D solution was added to each well and incubated for 30 minutes at room temperature while shaking. HTRF was measured using a Thermo Varioskan (excitation 334 nm, emission 665 nm). The IC50 of each inhibitor was analyzed using Graphad Prism.
The SOS1 inhibitory activity of the Example compounds measured by the above method was evaluated based on the following criteria, and the results are shown in Table 29.
For the compound “1-(1-acetylpiperidin-4-yl)-N-[(1R)-1-[3-amino-5-(trifluoromethyl)phenyl]ethyl]-6-oxo-1,6-dihydropyridazine-3-carboxamide [Example 118]”, the concentration for half-maximal inhibition (IC50) was 1 to 10 µM.
Turning to `C[C@@H](NC(=O)c1ccc(=O)n(-c2ccccc2)n1)c1cccc(Cl)c1` [Example 1, N-[(1R)-1-(3-chlorophenyl)ethyl]-6-oxo-1-phenyl-pyridazine-3-carboxamide], the IC50 is 1 to 10 µM.
Still for that read-out and setting: the result for `C[C@@H](NC(=O)c1ccc(=O)n(-c2ccccc2)n1)c1cccc(Br)c1` [Example 2, N-[(1R)-1-(3-bromophenyl)ethyl]-6-oxo-1-phenyl-pyridazine-3-carboxamide] reads 1 to 10 µM; that for `Cc1cccc([C@@H](C)NC(=O)c2ccc(=O)n(-c3ccccc3)n2)c1` [Example 3, (R)-6-oxo-1-phenyl-N-(1-(m-tolyl)ethyl)-1,6-dihydropyridazine-3-carboxamide], more than 10 µM.

A further test has as its target T2, KRAS^G12C::SOS1 (Homo sapiens, UniProt Q07889).
T2 sequence (Q07889 1-1333): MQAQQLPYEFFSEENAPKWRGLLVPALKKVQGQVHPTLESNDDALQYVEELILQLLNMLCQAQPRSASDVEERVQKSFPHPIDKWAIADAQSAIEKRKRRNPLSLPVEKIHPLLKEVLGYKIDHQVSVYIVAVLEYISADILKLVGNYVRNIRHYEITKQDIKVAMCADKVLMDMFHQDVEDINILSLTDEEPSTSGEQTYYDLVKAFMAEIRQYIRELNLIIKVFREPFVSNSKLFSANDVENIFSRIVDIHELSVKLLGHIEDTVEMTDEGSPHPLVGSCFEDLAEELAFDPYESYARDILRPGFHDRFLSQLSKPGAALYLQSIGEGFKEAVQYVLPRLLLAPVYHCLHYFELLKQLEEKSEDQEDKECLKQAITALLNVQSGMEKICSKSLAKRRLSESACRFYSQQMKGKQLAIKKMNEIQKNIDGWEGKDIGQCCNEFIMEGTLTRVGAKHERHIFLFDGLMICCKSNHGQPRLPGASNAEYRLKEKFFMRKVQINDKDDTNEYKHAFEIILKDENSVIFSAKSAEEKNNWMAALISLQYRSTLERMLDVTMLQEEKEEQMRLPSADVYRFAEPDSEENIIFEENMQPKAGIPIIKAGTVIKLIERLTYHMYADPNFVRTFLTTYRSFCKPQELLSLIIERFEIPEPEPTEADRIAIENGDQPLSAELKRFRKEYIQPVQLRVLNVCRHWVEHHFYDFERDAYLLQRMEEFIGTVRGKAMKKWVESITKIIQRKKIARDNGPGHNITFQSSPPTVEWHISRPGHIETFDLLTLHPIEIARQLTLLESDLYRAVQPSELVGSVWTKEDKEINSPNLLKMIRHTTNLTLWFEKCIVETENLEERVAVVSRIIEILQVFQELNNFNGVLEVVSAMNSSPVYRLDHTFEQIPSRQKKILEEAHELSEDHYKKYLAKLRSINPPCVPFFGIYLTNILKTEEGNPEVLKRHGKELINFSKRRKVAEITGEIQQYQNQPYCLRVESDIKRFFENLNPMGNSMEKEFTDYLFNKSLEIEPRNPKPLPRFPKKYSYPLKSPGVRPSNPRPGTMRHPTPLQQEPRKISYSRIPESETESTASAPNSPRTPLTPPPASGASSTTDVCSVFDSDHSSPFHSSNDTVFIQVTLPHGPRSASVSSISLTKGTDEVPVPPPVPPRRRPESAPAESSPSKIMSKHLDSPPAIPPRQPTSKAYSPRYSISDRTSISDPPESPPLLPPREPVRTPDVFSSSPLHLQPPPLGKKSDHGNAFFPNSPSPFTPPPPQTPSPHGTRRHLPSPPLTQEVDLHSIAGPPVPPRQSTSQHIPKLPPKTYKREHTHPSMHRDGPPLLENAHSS
Kind of test: KRAS G12C::SOS1 protein-protein interaction (PPI) inhibition assay (HTRF binding kit).
Conditions: not given
(In general: TR-FRET usually uses a lanthanide donor and a delayed reading to cut background.)
`CNCc1cc(Cl)c(F)cc1-c1ccc([C@@H](C)NC(=O)c2ccc(=O)n(-c3cccnc3F)n2)s1` [Example 400, N-[(1R)-1-(5-{4-chloro-5-fluoro-2-[(methylamino)methyl]phenyl}thiophen-2-yl)ethyl]-1-(2-fluoropyridin-3-yl)-6-oxo-1,6-dihydropyridazine-3-carboxamide] came in with a concentration for half-maximal inhibition (IC50) of less than 1 µM.
The compound `CNCc1cc(F)c(F)cc1-c1ccc([C@@H](C)NC(=O)c2ccc(=O)n(-c3cccnc3F)n2)s1` [Example 401, N-[(1R)-1-(5-{4,5-difluoro-2-[(methylamino)methyl]phenyl}thiophen-2-yl)ethyl]-1-(2-fluoropyridin-3-yl)-6-oxo-1,6-dihydropyridazine-3-carboxamide] displayed a half-inhibitory concentration (IC50) of less than 1 µM.
Still for that read-out and setting: as for `CNCc1ccc(C)cc1-c1ccc([C@@H](C)NC(=O)c2ccc(=O)n(-c3cccnc3F)n2)s1` [Example 402, 1-(2-fluoropyridin-3-yl)-N-[(1R)-1-(5-{5-methyl-2-[(methylamino)methyl]phenyl}thiophen-2-yl)ethyl]-6-oxo-1,6-dihydropyridazine-3-carboxamide], the figure is less than 1 µM; as for `C[C@@H](NC(=O)c1ccc(=O)n(-c2cccnc2F)n1)c1ccc(-c2cc(F)ccc2CN(C)C)s1` [Example 403, N-[(1R)-1-(5-{2-[(dimethylamino)methyl]-5-fluorophenyl}thiophen-2-yl)ethyl]-1-(2-fluoropyridin-3-yl)-6-oxo-1,6-dihydropyridazine-3-carboxamide], less than 1 µM.
Same read-out and setting: the result for `C[C@@H](NC(=O)c1ccc(=O)n(-c2cccnc2F)n1)c1ccc(-c2cc(F)ccc2CN)s1` [Example 404] reads less than 1 µM; that for `CCn1cc(-n2nc(C(=O)N[C@H](C)c3ccc(-c4cc(Cl)ccc4CNC)s3)ccc2=O)cn1` [Example 405], less than 1 µM; that for `CNCc1ccc(Cl)cc1-c1ccc([C@@H](C)NC(=O)c2ccc(=O)n(-c3cnn(CCOC)c3)n2)s1` [Example 406], less than 1 µM.
Compound `CNCc1ccc(F)cc1-c1ccc([C@@H](C)NC(=O)c2ccc(=O)n(-c3cccnc3OC)n2)s1` [Example 407] displayed an IC50 of less than 1 µM.
Same read-out and setting: as for `CNCc1c(F)cccc1-c1ccc([C@@H](C)NC(=O)c2ccc(=O)n(-c3cccnc3F)n2)s1` [Example 409], the figure is less than 1 µM.
Regarding `CNCc1ccc(C#N)cc1-c1ccc([C@@H](C)NC(=O)c2ccc(=O)n(-c3ccccc3F)n2)s1` [Example 410], the 50% inhibitory concentration (IC50) is less than 1 µM.
Compound `CNCc1ccc(Cl)cc1-c1ccc([C@@H](C)NC(=O)c2ccc(=O)n(C3CCOCC3)n2)s1` [Example 411] gave a half-maximal inhibitory concentration (IC50) of less than 1 µM.
The compound `CNCc1ccccc1-c1ccc([C@@H](C)NC(=O)c2ccc(=O)n(-c3cccnc3F)n2)s1` [Example 412, 1-(2-fluoropyridin-3-yl)-N-[(1R)-1-(5-{2-[(methylamino)methyl]phenyl}thiophen-2-yl)ethyl]-6-oxo-1,6-dihydropyridazine-3-carboxamide] showed an IC50 of less than 1 µM.
Still for that read-out and setting: as for `CNCc1ccc(F)cc1-c1ccc([C@@H](C)NC(=O)c2ccc(=O)n(-c3cccc(-c4cnnn4C)c3)n2)s1` [Example 413], the figure is less than 1 µM; as for `C[C@@H](NC(=O)c1ccc(=O)n(-c2cccnc2F)n1)c1ccc(-c2cc(F)ccc2CCN)s1` [Example 414, N-[(1R)-1-[5-[2-(2-aminoethyl)-5-fluorophenyl]-2-thienyl]ethyl]-1-(2-fluoro-3-pyridyl)-6-oxopyridazine-3-carboxamide], less than 1 µM.
The same measure, in the same setting: the result for `C[C@@H](NC(=O)c1ccc(=O)n(-c2cccnc2F)n1)c1ccc(-c2cc(F)ccc2CC#N)s1` [Example 415, N-[(1R)-1-[5-[2-(cyanomethyl)-5-fluorophenyl]-2-thienyl]ethyl]-1-(2-fluoro-3-pyridyl)-6-oxo-pyridazine-3-carboxamide] reads less than 1 µM.

Staying with this test, now noted: read-out: KRAS ^G12C::SOS1 PPI assay (IC50 range, Grade); maximum concentration 3 µM, 8 concentrations, three replicates.
With `CNCc1ccc(F)cc1-c1ccc([C@@H](C)NC(=O)c2ccc(=O)n(-c3cccnc3O)n2)s1` [Example 408], the IC50 was less than 1 µM.
The same measure, in the same setting: the result for “N-[(1R)-1-[3-amino-5-(trifluoromethyl)phenyl]ethyl]-1-(3-isoxazol-4-ylphenyl)-6-oxo-pyridazine-3-carboxamide [Example 322]” reads less than 1 µM.
Same read-out and setting: the result for “N-[(1R)-1-[3-amino-5-(trifluoromethyl)phenyl]ethyl]-1-(4-fluorophenyl)-6-oxo-pyridazine-3-carboxamide [Example 172]” reads less than 1 µM; that for “N-[(1R)-1-[3-amino-5-(trifluoromethyl)phenyl]ethyl]-6-oxo-1-(3-phenylphenyl)pyridazine-3-carboxamide [Example 212]”, 1 to 10 µM.
With “N-[(1R)-1-[3-amino-5-(trifluoromethyl)phenyl]ethyl]-6-oxo-1-[3-(4-pyridyl)phenyl]pyridazine-3-carboxamide [Example 346]”, the IC50 is less than 1 µM.
